In US20180311225A1, “EXTERNAL PREPARATION” (TEIKA PHARMACEUTICAL CO., LTD., priority 2015, published 2018):

Tested on: allergic reaction at the conjunctiva sites (vascular hyperpermeability) of Wistar rats
Assay: Rat passive allergic conjunctivitis model, Evans blue dye leakage (absorbance at 620 nm)
Type: in vivo
Conditions: Example 2, FIG. 1, presence or absence of the component
Description: As a trigger solution was used a solution prepared by mixing equal volumes of 1% (w/v) ovalbumin (Grade V; manufactured by Sigma-Aldrich Co. LLC)/physiological saline (manufactured by Otsuka Pharmaceutical Co., Ltd.) and 1% (w/v) Evans blue (manufactured by Wako Pure Chemical Industries, Ltd.)/physiological saline.
As an extraction solution was used an aqueous solution of acetone (manufactured by Wako Pure Chemical Industries, Ltd.)/0.5% (w/v) sodium sulfate (manufactured by Wako Pure Chemical Industries. Ltd.) (7:3).
After 48 h, 1 mL of the trigger solution was intravenously administered to trigger an allergic reaction at the conjunctiva sites. Then, each test solution was dropped onto the eyes at 15 min before and immediately before triggering the allergic reaction (the total of 2 times). […] The overnight extraction solution was centrifuged to recover a supernatant. Absorbance of the supernatant was measured at 620 nm.
Vascular hyperpermeability caused by an allergic reaction results in leakage of Evans blue. Thus, the less the amount of leakage of the dye, the more the vascular hyperpermeability is suppressed. This should be an indicator of the antiallergic effects. The amount of leakage of dye per tissue unit (gig/g) was calculated by using a predetermined standard curve. A dye amount ratio was calculated using the following equation to give an indicator of the suppression effects. […]

Row | Compound | Contribution of the component to the antiallergic action when combined with ketotifen fumarate (group 6 compared with group 7, 8 or 10)
1 | O=C([O-])O.[Na+] [sodium bicarbonate] | can contribute to an antiallergic action
2 | [Cl-].[Na+] [sodium chloride] | can contribute to an antiallergic action
